Experimental data taken from patent US12129237B2, “Substituted diaminocarboxamide and diaminocarbonitrile pyrimidines, compositions thereof, and methods of treatment therewith” (SIGNAL PHARMACEUTICALS, LLC, priority 2011, dated 2024).

These compounds were tested against T1, JNK1 (Homo sapiens, UniProt P45983) (assay: JNK1 biochemical assays (one or more of: time resolved fluorescence, Z'-LYTE Cascade, radioactive)). Conditions: one or more of the JNK1 biochemical assays; read-out: Act. Level (JNK1 IC50 activity level).
T1 construct: purchased Carna Biosciences
T1 sequence (P45983 whole entry): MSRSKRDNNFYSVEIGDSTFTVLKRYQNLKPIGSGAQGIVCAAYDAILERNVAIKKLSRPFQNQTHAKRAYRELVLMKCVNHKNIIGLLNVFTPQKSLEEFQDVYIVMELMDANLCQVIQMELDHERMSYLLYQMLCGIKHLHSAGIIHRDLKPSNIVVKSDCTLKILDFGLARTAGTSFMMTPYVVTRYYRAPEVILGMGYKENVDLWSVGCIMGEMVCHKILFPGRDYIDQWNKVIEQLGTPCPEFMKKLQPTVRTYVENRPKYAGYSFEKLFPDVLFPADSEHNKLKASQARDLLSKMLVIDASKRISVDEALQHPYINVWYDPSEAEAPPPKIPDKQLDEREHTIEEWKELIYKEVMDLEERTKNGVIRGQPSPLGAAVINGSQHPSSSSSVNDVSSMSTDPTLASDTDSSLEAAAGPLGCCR

| IC50 [nM] | SMILES |
| --- | --- |
| < 200 | CCO[C@H]1CC[C@H](Nc2ncc(C(N)=O)c(NC34CCC(C3)C4)n2)CC1 [Example 462, 4-(bicyclo[2.1.1]hexan-1-ylamino)-2-((1r,4r)-4-ethoxycyclohexylamino)pyrimidine-5-carboxamide] |
| < 200 | CCC1(Nc2nc(N[C@H]3CC[C@H](OC4CC4)CC3)ncc2C(N)=O)CCCC1 [Example 463, 2-((1r,4r)-4-cyclopropoxycyclohexylamino)-4-(1-ethylcyclopentylamino)pyrimidine-5-carboxamide] |
| < 200 | CCO[C@H]1CC[C@H](Nc2ncc(C(N)=O)c(NC3(CC)CCCC3)n2)CC1 [Example 464, 2-((1r,4r)-4-ethoxycyclohexylamino)-4-(1-ethylcyclopentylamino)pyrimidine-5-carboxamide] |
| < 200 | CC(C)(Nc1nc(N[C@@H]2CCC[C@@H](O)C2)ncc1C(N)=O)C1CC1 [Example 465, 4-(2-cyclopropylpropan-2-ylamino)-2-((1R,3R)-3-hydroxycyclohexylamino)pyrimidine-5-carboxamide] |
| < 200 | CC(C)(Nc1nc(N[C@@H]2CCC[C@H](O)C2)ncc1C(N)=O)C1CC1 [Example 466, 4-(2-cyclopropylpropan-2-ylamino)-2-((1R,3S)-3-hydroxycyclohexylamino)pyrimidine-5-carboxamide] |
| < 200 | CC(C)(Nc1nc(NC2CCOCC2)ncc1C(N)=O)C1CC1 [Example 467, 4-(2-cyclopropylpropan-2-ylamino)-2-(tetrahydro-2H-pyran-4-ylamino)pyrimidine-5-carboxamide] |
| < 200 | CC(C)(Nc1nc(N[C@H]2CCCOC2)ncc1C(N)=O)C1CC1 [Example 468, (S)-4-(2-cyclopropylpropan-2-ylamino)-2-(tetrahydro-2H-pyran-3-ylamino)pyrimidine-5-carboxamide] |
| < 200 | C[C@@H]1CC[C@@H](Nc2nc(N[C@@H](C)C(C)(C)C)ncc2C(N)=O)C[C@H]1O [Example 469, 2-((S)-3,3-dimethylbutan-2-ylamino)-4-((1R,3R,4R)-3-hydroxy-4-methylcyclohexylamino)pyrimidine-5-carboxamide] |
| < 200 | CC(C)[C@@H](C)Nc1ncc(C(N)=O)c(N[C@@H]2CC[C@@H](C)[C@H](O)C2)n1 [Example 470, 4-((1R,3R,4R)-3-hydroxy-4-methylcyclohexylamino)-2-((R)-3-methylbutan-2-ylamino)pyrimidine-5-carboxamide] |
| < 200 | CC(C)[C@H](C)Nc1ncc(C(N)=O)c(N[C@@H]2CC[C@@H](C)[C@H](O)C2)n1 [Example 471, 4-((1R,3R,4R)-3-hydroxy-4-methylcyclohexylamino)-2-((S)-3-methylbutan-2-ylamino)pyrimidine-5-carboxamide] |
| < 200 | C[C@@H]1CC[C@@H](Nc2nc(NCC3CC3)ncc2C(N)=O)C[C@H]1O [Example 472, 2-(cyclopropylmethylamino)-4-((1R,3R,4R)-3-hydroxy-4-methylcyclohexylamino)pyrimidine-5-carboxamide] |
| < 200 | CO[C@H]1CC[C@H](Nc2ncc(C(N)=O)c(NC3(C)CCCC3)n2)CC1 [Example 473] |
| < 200 | C[C@@H]1CC[C@@H](Nc2nc(NC3(C4CC4)CC3)ncc2C(N)=O)C[C@H]1O [Example 474, 2-(bi(cycloprop)ylamino)-4-((1R,3R,4R)-3-hydroxy-4-methylcyclohexylamino)pyrimidine-5-carboxamide] |
| < 200 | C[C@@H]1CC[C@@H](Nc2nc(NC3(C)CCCC3)ncc2C(N)=O)C[C@H]1O [Example 475, 4-((1R,3R,4R)-3-hydroxy-4-methylcyclohexylamino)-2-(1-methylcyclopentylamino)pyrimidine-5-carboxamide] |
| < 200 | CCO[C@H]1CC[C@H](Nc2ncc(C(N)=O)c(NC3C4CC3C4)n2)CC1 (stereo partly drawn) [Example 476, 4-(bicyclo[1.1.1]pentan-2-ylamino)-2-((1r,4r)-4-ethoxycyclohexylamino)pyrimidine-5-carboxamide] |

The next lines start with the compound.

| SMILES | IC50 [nM] |
| --- | --- |
| C[C@@H](Nc1nc(NC23CCC(O)(CC2)C3)ncc1C(N)=O)C1CC1 [Example 450, (R)-4-(1-cyclopropylethylamino)-2-(4-hydroxybicyclo[2.2.1]heptan-1-ylamino)pyrimidine-5-carboxamide] | < 200 |
| CC1(Nc2nc(NC34CCC(O)(CC3)C4)ncc2C(N)=O)CCC1 [Example 451, 2-(4-hydroxybicyclo[2.2.1]heptan-1-ylamino)-4-(1-methylcyclobutylamino)pyrimidine-5-carboxamide] | < 200 |
| CCC(C)(C)Nc1nc(NC23CCC(O)(CC2)C3)ncc1C(N)=O [Example 452, 2-(4-hydroxybicyclo[2.2.1]heptan-1-ylamino)-4-(tert-pentylamino)pyrimidine-5-carboxamide] | < 200 |
| NC(=O)c1cnc(N[C@H]2CC[C@H](O)CC2)nc1NC1C2CC1C2 (stereo partly drawn) [Example 453, 4-(bicyclo[1.1.1]pentan-2-ylamino)-2-((1r,4r)-4-hydroxycyclohexylamino)pyrimidine-5-carboxamide] | < 200 |
| CCC1(Nc2nc(N[C@H]3CC[C@H](OC)CC3)ncc2C(N)=O)CCCC1 [Example 454, 4-(1-ethylcyclopentylamino)-2-((1r,4r)-4-methoxycyclohexylamino)pyrimidine-5-carboxamide] | < 200 |
| CCC1(Nc2nc(N[C@H]3CC[C@H](O)CC3)ncc2C(N)=O)CCCC1 [Example 455, 4-(1-ethylcyclopentylamino)-2-((1r,4r)-4-hydroxycyclohexylamino)pyrimidine-5-carboxamide] | < 200 |
| CC(C)(Nc1nc(N[C@H]2CCC[C@H](O)C2)ncc1C(N)=O)C1CC1 [Example 456, 4-(2-cyclopropylpropan-2-ylamino)-2-((1S,3S)-3-hydroxycyclohexylamino)pyrimidine-5-carboxamide] | < 200 |
| CC(C)(Nc1nc(N[C@H]2CCC[C@@H](O)C2)ncc1C(N)=O)C1CC1 [Example 457, 4-(2-cyclopropylpropan-2-ylamino)-2-((1S,3R)-3-hydroxycyclohexylamino)pyrimidine-5-carboxamide] | < 200 |
| NC(=O)c1cnc(N[C@]23CC[C@@](O)(CC2)C3)nc1NC12CC(C1)C2 [Example 458, 4-(bicyclo[1.1.1]pentan-1-ylamino)-2-((1r,4r)-4-hydroxybicyclo[2.2.1]heptan-1-ylamino)pyrimidine-5-carboxamide] | < 200 |
| C[C@@H]1CC[C@@H](Nc2nc(N[C@H](C)C3CCC3)ncc2C(N)=O)C[C@H]1O [Example 459, 2-((R)-1-cyclobutylethylamino)-4-((1R,3R,4R)-3-hydroxy-4-methylcyclohexylamino)pyrimidine-5-carboxamide] | < 200 |
| C[C@H](Nc1ncc(C(N)=O)c(N[C@@H]2CC[C@@H](C)[C@H](O)C2)n1)C1CCC1 [Example 460, 2-((S)-1-cyclobutylethylamino)-4-((1R,3R,4R)-3-hydroxy-4-methylcyclohexylamino)pyrimidine-5-carboxamide] | < 200 |
| C[C@@H]1CC[C@@H](Nc2nc(N[C@H](C)C(C)(C)C)ncc2C(N)=O)C[C@H]1O [Example 461, 2-((R)-3,3-dimethylbutan-2-ylamino)-4-((1R,3R,4R)-3-hydroxy-4-methylcyclohexylamino)pyrimidine-5-carboxamide] | < 200 |
